From patent US12097276B2, “Cosmetic composition comprising theasinensin A” (AMOREPACIFIC CORPORATION, priority 2018, dated 2024)

Key:
[1] = Stability of the active ingredient in solubilized formulations (remaining titer by HPLC); type: physicochemical; conditions: stored at 25° C.
Experimental: The following experiment was conducted to investigate the stability of theasinensin A as an active ingredient.
First, a solubilized formulation comprising the theasinensin A prepared in Preparation Example (Example 1) and a solubilized formulation comprising EGCG (Comparative Example 1) were prepared with the following compositions.
Then, the titer of theasinensin A or EGCG remaining in the formulations of Example 1 and Comparative Example 1 was analyzed by high-performance liquid chromatography (HPLC) with 1-week intervals. Specifically, after storing 10 mL of each composition of Example 1 and Comparative Example 1 at 25° C. and sonicating the same with 1-week intervals after diluting 10 fold with methanol followed by filtering, the content was analyzed by HPLC.

[2] = test system: melanin production in B16 cells; assay: Inhibition of intra/extracellular melanin production in α-MSH-treated B16 cells; type: cell-based; conditions: 72 hours; for extracellular melanin content compared to the control group treated only with α-MSH / intracellular melanin content compared to the control group treated only with α-MSH: B16 cells, 200 nM α-MSH, 2.5, 5 or 10 ppm
Experimental: For investigation of the skin-brightening effect of theasinensin A, the effect of inhibiting intra/extracellular melanin production was tested as follows.
First, after treating B16 cells (ATCC, Cat No CRL-6475) with 200 nM of α-melanocyte-stimulating hormone (α-MSH) and with theasinensin A as an example of the present disclosure or EGCG as a comparative example at nontoxic concentrations of 10 ppm or lower (2.5, 5 or 10 ppm), the intracellular and extracellular melanin contents 72 hours after the treatment were measured by correcting to the protein contents, and represented as % of melanin contents with respect to a non-theasinensin A-treated control group.
The intracellular melanin content is shown in FIG. 5 (TSA) and FIG. 6 (EGCG), and the extracellular melanin content is shown in FIG. 7 (TSA) and FIG. 8 (EGCG).

[3] = test system: matrix metalloproteinase-1 (MMP-1) expression in UVB-irradiated HS68 cells; assay: Inhibition of MMP-1 expression in UVB-irradiated HS68 cells (ELISA); type: cell-based, human; conditions: 48 hours
Experimental: For investigation of the effect of reducing skin wrinkles and enhancing skin elasticity of theasinensin A, the effect of inhibiting the expression of matrix metalloproteinase-1 (MMP-1), which is a collagenase in the human body, was tested as follows.
First, a cell culture was prepared by treating UVB-irradiated HS68 cells (ATCC, Cat No CRL-1635) with the theasinensin A prepared in Preparation Example at 2.5, 5 or 10 ppm. After culturing HS68 cells (ATCC, Cat No CRL-1635) in a separate medium and adding phosphate-buffered saline (PBS) thereto after removing the medium, UVB was irradiated with an intensity of 30 mJ/cm^2. The UVB-irradiated cells were treated with the previously prepared theasinensin A-treated culture and cultured for 48 hours in an incubator. After recovering the culture, MMP-1 expression level was measured using a MMP-1 ELISA kit (Amersham, RPN2610).

[4] = DPPH radical-scavenging assay (antioxidant effect); conditions: 100 μM DPPH in ethanol, 37° C., 30 minutes
Experimental: For investigation of the antioxidant effect of theasinensin A, the effect of inhibiting 2,2-diphenyl-1-picrylhydrazyl (DPPH) was tested as follows.
The 2,2-diphenyl-1-picrylhydrazyl (DPPH, Sigma D9132) radical dissolved in an organic solvent has the maximum absorbance at 515 nm. Since an antioxidant substance scavenges the DPPH radical and turns it colorless, antioxidant effect can be compared by measuring the DPPH radical-scavenging activity of theasinensin A through DPPH assay.
First, theasinensin A (TSA) was dissolved in ethanol such that the concentration of the theasinensin A (TSA) was 0.3125, 0.625, 1.25, 2.5, 5 and 10 ppm, respectively. The solutions of different concentrations were added to a 96-well plate, 10 μL each. Then, after adding 190 μL of 100 μM DPPH completely dissolved in ethanol to each solution and storing at 37° C. for 30 minutes, absorbance was measured at 515 nm.
DPPH assay was conducted in the same manner for 0.625, 1.25, 2.5, 5 and 10 ppm of vitamin C (Vit.C) as positive control groups and a negative control group (N.T.) not treated with theasinensin A (TSA) or vitamin C (Vit.C).

[5] = about 4 weeks later, solubilized formulation with 0.02 wt % active (Example 1 / Comparative Example 1)

Row | Structure (SMILES) | amount of active ingredient remaining in the solubilized formulation (of total amount used) ([1]; 1 week later, solubilized formulation with 0.02 wt % active (Comparative Example 1)) | amount of active ingredient remaining in the solubilized formulation (of total amount used) [1, 5] | extracellular melanin content compared to the control group treated only with α-MSH [2] | intracellular melanin content compared to the control group treated only with α-MSH [2] | inhibition of MMP-1 expression ([3]; UVB-irradiated (30 mJ/cm^2) HS68 cells, 2.5, 5 or 10 ppm, concentration-dependent) [%] | concentration at which MMP-1 expression level was inhibited significantly ([3]; UVB-irradiated HS68 cells) [ppm] | concentration at which DPPH activity was inhibited significantly [4] [ppm] | IC50 of DPPH activity inhibition ([4]; absorbance at 515 nm) [ppm] | inhibition at 10 ppm ([2]; Mus musculus, 10 ppm, B16 cells with 200 nM α-MSH) [%]
1 | O=C(O[C@@H]1Cc2c(O)cc(O)cc2O[C@@H]1c1cc(O)c(O)c(O)c1)c1cc(O)c(O)c(O)c1 [EGCG, epigallocatechin gallate, reference compound] | less than 80 wt % | less than 40 wt % | increased | increased | – | – | – | – | –
2 | O=C(O[C@@H]1Cc2c(O)cc(O)cc2O[C@@H]1c1cc(O)c(O)c(O)c1-c1c([C@H]2Oc3cc(O)cc(O)c3C[C@H]2OC(=O)c2cc(O)c(O)c(O)c2)cc(O)c(O)c1O)c1cc(O)c(O)c(O)c1 [theasinensin A] | – | ≥ 87 wt % | decreased melanin content | decreased melanin content | ≥ 50 | ≥ 2.5 | ≥ 0.3 | 5.9 | ~30
